Patent publication EP4818168A1, “FUSED RING COMPOUND, PHARMACEUTICAL COMPOSITION THEREOF AND USE THEREOF” (priority 2023, dated 2025)
pIC50: −log10 of the molar value. Read-outs that look alike come from different tables or passages of the source.

Legend:
AURKA = biological target: T1, AURKA (Homo sapiens, UniProt O14965); format: cell-based
T1 construct: endogenous in cells; host or cells: Jurkat cells
T1 sequence (O14965 1-403): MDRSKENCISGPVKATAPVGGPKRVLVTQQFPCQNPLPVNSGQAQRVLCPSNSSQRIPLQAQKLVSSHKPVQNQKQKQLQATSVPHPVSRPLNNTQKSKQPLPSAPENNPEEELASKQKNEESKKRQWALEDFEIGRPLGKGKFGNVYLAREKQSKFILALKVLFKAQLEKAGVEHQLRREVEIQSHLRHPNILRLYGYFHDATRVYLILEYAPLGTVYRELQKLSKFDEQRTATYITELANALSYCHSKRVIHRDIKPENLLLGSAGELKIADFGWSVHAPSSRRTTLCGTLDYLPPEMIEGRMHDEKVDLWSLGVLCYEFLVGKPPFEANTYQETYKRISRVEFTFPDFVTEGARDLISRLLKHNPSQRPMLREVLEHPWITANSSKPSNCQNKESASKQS
How it was run: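 AURKA degradation read by western blot: band signal, fluorescent or chemiluminescent, curve-fitted to derive DC50. Cells were Jurkat, plated at 1×10^6 cells/500 µL with compound, then lysed and blotted onto nitrocellulose, primary antibody overnight at 4°C.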

HCC1806 cells = assay: CTG assay of compound inhibition on cell viability (HCC1806 cells); format: cell-based; details: Homo sapiens, HCC1806, 144 h, read-out: IC50 in HCC1806 Cells
How it was run: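 HCC1806 cells in RPMI1640 + 10% FBS were exposed to serially diluted compound (0.1% DMSO final) for 6 days at 37°C, 5% CO2. Viability was read as CellTiter-Glo luminescence (ATP) and normalised to DMSO and medium controls. IC50 came from a nonlinear-regression dose-survival curve.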

H82 cells = assay: cells; format: cell-based; details: Homo sapiens
How it was run: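 After 6 days' compound treatment at 37 °C (final DMSO 0.1%, RPMI1640/10% FBS), viable H82 cells were quantified by ATP-dependent CellTiter-Glo luminescence. Remaining activity was calculated against DMSO and medium wells, and a sigmoidal fit gave IC50.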

Mouse PK study = format: in vivo; details: male CD1 mice; for C0/Cmax / half-life / AUC(0-t) at 24 h / clearance / Vd / Tmax: plasma; for half-life / AUC(0-t) at 24 h / clearance / Vd / Tmax: mouse; for AUC(0-t) at 24 h: read-out: AUC0-24; for clearance: read-out: CLp; for Vd: read-out: Vss
Method: Male CD1 mice (5-8 weeks old) were administered intravenously (IV) at a dose of 1 mg/kg by tail vein bolus or orally (PO) at doses of 10 mg/kg and 40 mg/kg by gavage. The compound was formulated in a vehicle of 10% DMSO + 10% Solutol HS15 + 80% saline. All animals were given free access to food and water during the experiment. […] Blood samples were centrifuged at 3500 g for 5 min, and the resulting plasma was analyzed by an LC-MS/MS method. The PK parameters were calculated using WinNonlin software (Phoenix®, version 8.3) through non-compartmental analysis methods.

[1] = 100 nM compound, Jurkat cells, 24 h, Table 1
[2] = 1 µM compound, Jurkat cells, 24 h, Table 1
[3] = 100 nM compound, Jurkat cells, 24 h, Table 2
[4] = 1 µM compound, Jurkat cells, 24 h, Table 2

## COc1cccc(F)c1C1=NCc2cnc(Nc3ccc(C(=O)NC4CN(CC5CN(c6cccc(N7CCC(=O)NC7=O)c6)C5)C4)cc3)nc2-c2ccc(Cl)cc21 [Compound A73]
AURKA; [1]
  Percentage of AURKA Degradation Induced by 100 nM Compound in Jurkat Cells: +++ (Degradation > 70%)
AURKA; [2]
  Percentage of AURKA Degradation Induced by 1 µM Compound in Jurkat Cells: +++ (Degradation > 70%)
HCC1806 cells
  pIC50: > 6.00

## O=C1CCN(c2cccc(N3CC(N4CC(NC(=O)c5ccc(Nc6ncc7c(n6)-c6ccc(Cl)cc6C(c6c(F)cccc6F)=NC7)cc5)C4)C3)c2)C(=O)N1 [Compound A74]
AURKA; [1]
  Percentage of AURKA Degradation Induced by 100 nM Compound in Jurkat Cells: ++ (30% < Degradation ≤ 70%)
AURKA; [2]
  Percentage of AURKA Degradation Induced by 1 µM Compound in Jurkat Cells: ++ (30% < Degradation ≤ 70%)
HCC1806 cells
  pIC50: > 6.00

## O=C1CCC(N2CCN(C3CN(CCNC(=O)c4ccc(Nc5ncc6c(n5)-c5ccc(Cl)cc5C(c5c(F)cccc5F)=NC6)cc4)C3)CC2=O)C(=O)N1 (stereo not drawn) [Compound A75]
AURKA
  Percentage of AURKA Degradation Induced by 100 nM Compound in Jurkat Cells: ++ (key: +: Degradation ≤ 30%; ++: 30% < Degradation ≤ 70%; +++: Degradation > 70%)
  Percentage of AURKA Degradation Induced by 1 µM Compound in Jurkat Cells: ++ (key: +: Degradation ≤ 30%; ++: 30% < Degradation ≤ 70%; +++: Degradation > 70%)
HCC1806 cells
  pIC50: 5.00 to 6.00

## COc1cccc(F)c1C1=NCc2cnc(Nc3ccc(C(=O)NC45CC(C#Cc6cccc(N7CCC(=O)NC7=O)c6)(C4)C5)cc3)nc2-c2ccc(Cl)cc21 [Compound A77]
AURKA
  Percentage of AURKA Degradation Induced by 100 nM Compound in Jurkat Cells: ++ (key: +: Degradation ≤ 30%; ++: 30% < Degradation ≤ 70%; +++: Degradation > 70%)
  Percentage of AURKA Degradation Induced by 1 µM Compound in Jurkat Cells: ++ (key: +: Degradation ≤ 30%; ++: 30% < Degradation ≤ 70%; +++: Degradation > 70%)
HCC1806 cells
  pIC50: 5.00 to 6.00

## COc1cc(Nc2ncc3c(n2)-c2ccc(Cl)cc2C(c2c(F)cccc2OC)=NC3)ccc1C(=O)NC1CC2(CCN(c3ncc(N4CCC(=O)NC4=O)s3)CC2)C1 [Compound A80]
AURKA; [1]
  Percentage of AURKA Degradation Induced by 100 nM Compound in Jurkat Cells: ++ (30% < Degradation ≤ 70%)
AURKA; [2]
  Percentage of AURKA Degradation Induced by 1 µM Compound in Jurkat Cells: +++ (Degradation > 70%)
HCC1806 cells
  pIC50: > 6.00

## O=C1CCN(c2cnc(N3CCC4(CC3)CC(NC(=O)c3ccc(Nc5ncc6c(n5)-c5ccc(Cl)cc5C(c5c(F)cccc5F)=NC6)cc3)C4)s2)C(=O)N1 [Compound A81]
AURKA; [1]
  Percentage of AURKA Degradation Induced by 100 nM Compound in Jurkat Cells: +++ (Degradation > 70%)
AURKA; [2]
  Percentage of AURKA Degradation Induced by 1 µM Compound in Jurkat Cells: +++ (Degradation > 70%)
HCC1806 cells
  pIC50: > 6.00

## O=C1CCN(c2ccc(N3CCO[C@H](C(=O)N4CCN(c5ccc(Nc6ncc7c(n6)-c6ccc(Cl)cc6C(c6c(F)cccc6F)=NC7)cc5)CC4)C3)nc2)C(=O)N1 [Compound A307]
AURKA; [3]
  Percentage of AURKA Degradation Induced by 100 nM Compound in Jurkat Cells: +++ (Degradation > 70%)
AURKA; [4]
  Percentage of AURKA Degradation Induced by 1 µM Compound in Jurkat Cells: +++ (Degradation > 70%)
H82 cells; NCI-H82, H82 cells, 4000 cells/well, CellTiter-Glo, read-out: IC50 in H82 Cells
  pIC50: > 6.00
Mouse PK study; IV 1 mg/kg
  C0/Cmax: 1527 ng/mL
  half-life: 2.28 h
  AUC(0-t) at 24 h: 2450 ng·h/mL
  clearance: 6.33 mL/min/kg
  Vd: 1.04 L/kg
Mouse PK study; PO 10 mg/kg
  F: 79.7%
  C0/Cmax: 2460 ng/mL
  Tmax: 2 h
  half-life: 2.41 h
  AUC(0-t) at 24 h: 19500 ng·h/mL
Mouse PK study; PO 40 mg/kg
  F: 80.6%
  C0/Cmax: 7283 ng/mL
  Tmax: 3.33 h
  half-life: 2.37 h
  AUC(0-t) at 24 h: 78900 ng·h/mL

## O=C1CCN(c2ccc(N3CCC4(CC3)CC(N3CCN(C56CC(Nc7ncc8c(n7)-c7ccc(Cl)cc7C(c7c(F)cccc7F)=NC8)(C5)C6)C(=O)C3)CO4)nc2)C(=O)N1 (stereo not drawn) [Compound A321]
AURKA; [3]
  Percentage of AURKA Degradation Induced by 100 nM Compound in Jurkat Cells: +++ (Degradation > 70%)
AURKA; [4]
  Percentage of AURKA Degradation Induced by 1 µM Compound in Jurkat Cells: +++ (Degradation > 70%)
H82 cells; NCI-H82, read-out: IC50 in H82 Cells
  pIC50: > 6.00
Mouse PK study; IV 1 mg/kg
  C0/Cmax: 1307 ng/mL
  half-life: 1.89 h
  AUC(0-t) at 24 h: 2630 ng·h/mL
  clearance: 6.16 mL/min/kg
  Vd: 0.97 L/kg
Mouse PK study; PO 10 mg/kg
  F: 157%
  C0/Cmax: 4007 ng/mL
  Tmax: 3.33 h
  half-life: 2.13 h
  AUC(0-t) at 24 h: 41400 ng·h/mL
Mouse PK study; PO 40 mg/kg
  F: 130%
  C0/Cmax: 13233 ng/mL
  Tmax: 3.33 h
  half-life: 1.97 h
  AUC(0-t) at 24 h: 137000 ng·h/mL

## COc1cc(Nc2ncc3c(n2)-c2ccc(Cl)cc2C(c2c(F)cccc2OC)=NC3)ccc1C(=O)O [alisertib, reference compound]
AURKA; [1]
  Percentage of AURKA Degradation Induced by 100 nM Compound in Jurkat Cells: + (Degradation ≤ 30%)
AURKA; [2]
  Percentage of AURKA Degradation Induced by 1 µM Compound in Jurkat Cells: + (Degradation ≤ 30%)
HCC1806 cells
  pIC50: > 6.00
